Assay results from patent US4954513A, “Leukotriene antagonists” (SmithKline Beecham Corporation, priority 1988, dated 1990).

Target: T1, leukotriene induced contraction of guinea pig tracheal tissues (Cavia porcellus, UniProt Q2NNR5)
T1 construct: Guinea pig (adult male albino Hartley strain) tracheal spiral strips; from tissue; host or cells: guinea pig (adult male albino Hartley) tracheal spiral strips
T1 sequence (Q2NNR5 1-340): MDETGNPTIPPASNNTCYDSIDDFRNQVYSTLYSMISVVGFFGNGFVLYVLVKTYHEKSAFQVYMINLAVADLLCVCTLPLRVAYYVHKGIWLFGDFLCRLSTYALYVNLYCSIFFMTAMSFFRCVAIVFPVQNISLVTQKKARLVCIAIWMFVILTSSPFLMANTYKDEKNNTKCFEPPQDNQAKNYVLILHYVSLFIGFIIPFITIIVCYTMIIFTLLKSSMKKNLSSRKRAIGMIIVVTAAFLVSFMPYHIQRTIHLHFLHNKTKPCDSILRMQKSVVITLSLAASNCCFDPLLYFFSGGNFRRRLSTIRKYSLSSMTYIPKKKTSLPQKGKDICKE
Test: Inhibition of leukotriene (LTD4) induced contraction of guinea pig tracheal spiral strips in vitro
Type: cell-based
Settings: LTD4 concentration-response on guinea pig tracheal strips, 30 min pretreatment with test compound, meclofenamic acid 1uM; EC30 shift; current average data; read-out: -LogKB (converted)
Protocol: The leukotriene antagonist activity of the compounds of this invention is measured by the ability of the compounds to inhibit the leukotriene induced contraction of guinea pig tracheal tissues in vitro. The following methodology was employed: In vitro: Guinea pig (adult male albino Hartley strain) tracheal spiral strips of approximate dimensions 2 to 3 mm cross sectional width and 3.5 cm length were bathed in modified Krebs buffer in jacketed 10 ml tissue bath and continuously aerated with 95% O2 /5% CO2. The tissues were connected via silk suture to force displacement transducers for recording isometric tension. The tissues were equilibrated for 1 hr., pretreated for 15 minutes with meclofenamic acid (1uM) to remove intrinsic prostaglandin responses, and then pretreated for an additional 30 minutes with either the test compound or vehicle control. A cumulative concentration-response curve for LTD4 on triplicate tissues was generated by successive increases in the bath concentration of the LTD4. In order to minimize intertissue variability, the contractions elicited by LTD4 were standardized as a percentage of the maximum response obtained to a reference agonist, carbachol (10uM). Calculations: The averages of the triplicate LTD4 concentration response curves both in the presence and absence of the test compound were plotted on log graph paper. The concentration of LTD4 needed to elicit 30% of the contraction elicited by carbachol was measured and defined as the EC30. The -log KB value for the test compound was determined by the following equations: [formula] […] The antagonist activity of representative compounds of this invention is listed in Table I. The -log KB values were calculated from the above protocol. Where compounds were tested more than once, the -log KB values given here represent the current average data.

Row | Kd [nM] | Compound
1 | 39.8 | O=C(CCSC(c1ccccc1CCCCCCCCc1ccccc1)C(O)C(=O)O)NS(=O)(=O)c1ccccc1 (stereo not drawn) [2-Hydroxy-3-[2-(N-phenylsulfonylcarbamoylethyl)thio]-3-[2-(8 phenyloctyl)phenyl]propanoic acid]
2 | 316 | O=C(O)CCSC(CC(=O)NS(=O)(=O)c1ccccc1)c1ccccc1CCCCCCCCc1ccccc1 (stereo not drawn) [Compound 2, N-[3-(Carboxyethylthio)-3-[2-(8-phenyloctyl)phenyl]]propionylbenzenesulfonamide]
3 | 398 | CS(=O)(=O)NC(=O)CC(SCCC(=O)O)c1ccccc1CCCCCCCCc1ccccc1 (stereo not drawn) [Compound 3, N-[3-(carboxyethylthio)-3-[2 (8 phenyloctyl)phenyl]propionyl]methanesulfonamide]
